A word on the IC50: it is the concentration that gives 50% inhibition. Low values mean higher potency, high ones lower potency.

Eleven compounds from PMC6017290, “Oleanolic Acid-amino Acids Derivatives: Design, Synthesis, and Hepatoprotective Evaluation In Vitro and In Vivo” (Molecules : A Journal of Synthetic Chemistry and Natural …, 2018) can be followed below.

Test [1] has as its system HSCs. The experiment in a line: MTT cell viability assay, HSCs. The test is classed as cell-based. Conditions: 72 h, mean ± SD of three experiments. How it is done:
(§1) Cell viability was evaluated using an MTT assay. HSCs, HepG2, Bel-7402, and L02 cells were seeded, respectively, in 96-well plates at a density of 3 × 10^3 cells per-well and stabilized at 37 °C for 24 h in a humidified atmosphere with 5% CO2. The growing cells were exposed to various concentrations of the tested drugs and incubated for 72 h (37 °C, 5% CO2). The MTT solution (20 μL, 5 mg/mL) was added to each well and incubated for 4 h. After removing the media, formazan crystals were dissolved with DMSO (150 μL). After shaking for 10 min, the absorbance was quantified at 490 nm. Wells containing no drugs were used as blanks. The IC50 values were defined as the concentration of compounds that produced a 50% reduction of surviving cells and were calculated using the Logit-method. The inhibitory rate was calculated in the following Equation (1): Inhibition rate (%) = (1 − OD Sample group/OD Control group) × 100%(1)

Another test concerns HepG2. The experiment in a line: MTT cell viability assay, HepG2. The test is classed as cell-based. The conditions noted are these: Homo sapiens, 72 h, mean ± SD of three experiments. How it is done: as §1
For orientation: Formazan colour is commonly taken as a measure of viable cells.

Another test deals with Bel-7402. Briefly: MTT cell viability assay, Bel-7402. The test is classed as cell-based. The conditions noted are these: Homo sapiens, 72 h, mean ± SD of three experiments. How it is done: as §1
The subject of another test is L02. The experiment in a line: MTT cell viability assay, L02 normal liver cell. It counts as cell-based. The conditions noted are these: Homo sapiens, 72 h, mean ± SD of three experiments. On the procedure: as §1
Test [2] deals with CCl4 acute liver injury mice model. Briefly: CCl4 acute liver injury mice model (HE staining, serum ALT and AST). It counts as in vivo. Conditions: 20 mg/kg intragastric, 8 days, CCl4 i.p., 16 h after injury; for activity of ALT in serum / activity of AST in serum: vs model group. How it is done:
The twelve mice were randomly divided into the control group, model group, administration of OA group, and administration of 3g group. In the administration of OA and 3g group, the mice were fed with OA and 3g suspension with 0.5% CMC-Na at a dose of 20 mg/kg body weight. The control group and model group were intragastrically administered with equal volume of 0.5% CMC-Na; during administration for 8 days, the general activity, fur, and feces of mice were observed daily. After administration for 1 h on the 8th day, the other groups were intraperitoneally injected with 10mL/kg 0.2% of the carbon tetrachloride (CCl4) olive oil solution, while the control group was intraperitoneally injected with olive oil solution. After 16 h of injury, the serum was prepared by centrifugation at 3000 rpm by orbital blood. The ability of ALT and AST was measured according to the instructions of the assay kit. The liver tissues of each group were taken out and the morphological differences were observed. The large lobe of liver was taken for pathological examination with HE staining under an optical microscope (×100).

The test system of test [3] is HSCs. The experiment in a line: Annexin V-FITC/PI staining apoptosis assay (flow cytometry). The test is classed as cell-based. The conditions noted are these: 72 h, control cells 15.1%. On the procedure: HSCs cells in logarithmic growth phase were cultured in 6-well plates at a density of 3 × 10^4 cells/mL for 24 h at 37 °C in a humidified atmosphere with 5% CO2. HSCs cells were treated with 3g at various concentrations (0, 1.5, 3.0, and 6.0 µM) for 72 h. Then, cells were collected, washed with annexin-binding buffer, and stained with annexin V-FITC and PI for 15 min in the dark. After that, the samples were analyzed by flow cytometry (BD FACSCalibur, San Jose, CA, USA).
Background: A flow cytometer gives signals particle by particle.

Test [4] relates to HSCs. The experiment in a line: Mitochondrial membrane potential assay (Rh123, flow cytometry). It counts as cell-based. The conditions noted are these: 1.5, 3.0, 6.0 µM, 72 h. On the procedure:
HSCs cells in logarithmic growth phase were seeded in 6-well culture plate at a density of 3 × 10^4 cells/mL for 24 h at 37 °C in incubator with 5% CO2. After treatment with different concentrations of 3g (0, 1.5, 3.0, and 6.0 μM) for 72 h, cells were collected and washed twice in cold PBS, then resuspended in 1 mL cell culture medium with Rh123 (10 μg/mL) and incubated for 30 min at 37 °C. After being washed twice with cold PBS, cells were immediately analyzed by the flow cytometer at 488 nm excitation wavelength.

Test [5] concerns HSCs. Briefly: Intracellular free Ca2+ levels assay (Fluo-3AM, flow cytometry). Conditions: 1.5, 3.0, 6.0 µM, 72 h. It counts as cell-based. On the procedure:
HSCs cells in logarithmic growth phase were cultured in 6-well plates at a density of 3 × 10^4 cells/mL for 24 h at 37 °C in incubator with 5% CO2. After treatment with different concentrations of 3g (0, 1.5, 3.0, and 6.0 μM) for 72 h, cells were collected and washed twice with cold PBS, then resuspended in HBSS buffer with 10 μM Fluo-3AM and incubated for 30 min at 37 °C in the dark. Intracellular Ca^2+ levels were analyzed by the flow cytometer at 488 nm excitation wavelength.

Test [6] has as its system HSCs. Briefly: Giemsa staining and DAPI staining, morphological changes. It counts as cell-based. The conditions noted are these: 1.5, 3.0, 6.0 µM, 72 h. How it is done:
HSCs cells in logarithmic growth phase were cultured in 6-well plates at a density of 3 × 10^4 cells/mL for 24 h at 37 °C in a humidified atmosphere with 5% CO2. Then, each group was treated with 3g at various concentrations (0, 1.5, 3.0, and 6.0 µM) for 72 h. The cell culture medium was discarded. Additionally, the cells were washed twice with PBS, kept in PBS/ethanol (1:1) for 2 min, and fixated in ethanol for 10 min. After removing the ethanol, the cells were stained with giemsa staining for 2 min and observed under inverted phase-contrast microscope at a magnification of 400×.
HSCs cells in logarithmic growth phase were cultured in 6-well plates at a density of 3 × 10^4 cells/mL for 24 h at 37 °C in a humidified atmosphere with 5% CO2. Additionally, each group was treated with different concentrations of 3g (0, 1.5, 3.0, and 6.0 µM) for 72 h. Cell culture medium was discarded, and the cells were washed twice with PBS. The cells were fixed with 4% paraformaldehyde (pH 7.4) for 15 min and then washed twice with PBS. With an excitation wavelength of […], 4′,6-diamidino-2-phenylindole (DAPI) staining was then performed for 2 min, and nuclear fragments were observed using inverted phase-contrast microscope at a magnification of 400×.

With `CC1(C)CCC2(C(=O)O)CCC3(C)C(=CCC4C5(C)CCC(OC(=O)CN)C(C)(C)C5CCC43C)C2C1` (centres unmarked) [3a], the concentration for half-maximal inhibition (IC50) in the test with HSCs [1] was 13.6 ± 1.12 µM; in the test on HepG2, 11.5 ± 0.95 µM; in the test with Bel-7402, 12.1 ± 1.32 µM; in the test with L02 it was more than 25 µM.
Taken in the same sequence, the figures for `CC1(C)CCC2(C(=O)O)CCC3(C)C(=CCC4C5(C)CCC(OC(=O)C(N)Cc6ccccc6)C(C)(C)C5CCC43C)C2C1` (centres unmarked) [3h] were 14.8 ± 0.8 µM, 11.5 ± 0.94 µM, 8.5 ± 1.65 µM and more than 50 µM.
As for `CC1(C)CC[C@]2(C(=O)O)CC[C@]3(C)C(=CC[C@@H]4[C@@]5(C)CC[C@H](O)C(C)(C)[C@@H]5CC[C@]43C)[C@@H]2C1` [OA, 3β-hydroxyolean-12-en-28-oic acid, reference compound], the IC50 with HSCs [1], in the test on HepG2, in the test on Bel-7402 and in the test on L02 was more than 50 µM throughout. Also, the “activity of ALT in serum” value in test [2] is on record as “reduced to some extent”. For the same compound, in test [2], the “activity of AST in serum” value is “reduced to some extent”.
Turning to `CCC(C)C(N)C(=O)OC1CCC2(C)C(CCC3(C)C2CC=C2C4CC(C)(C)CCC4(C(=O)O)CCC23C)C1(C)C` (centres unmarked) [3e], the IC50 with HSCs [1] is 24.5 ± 1.99 µM; in the test on HepG2, 18 ± 1.78 µM; with Bel-7402, 18.7 ± 1.63 µM; in the test on L02, more than 25 µM.
Taken in the same sequence, the figures for `CNCC(=O)OC1CCC2(C)C(CCC3(C)C2CC=C2C4CC(C)(C)CCC4(C(=O)O)CCC23C)C1(C)C` (centres unmarked) [3i] were 7.3 ± 1.58 µM, more than 25 µM, 11.8 ± 0.83 µM and more than 50 µM.
On the same counts, the results for `CC1(C)CCC2(C(=O)O)CCC3(C)C(=CCC4C5(C)CCC(OC(=O)C6CCC(=O)N6)C(C)(C)C5CCC43C)C2C1` (centres unmarked) [3j] are more than 25 µM, 23.9 ± 2.65 µM, more than 25 µM and more than 50 µM.
In the case of `CC1(C)CCC2(C(=O)O)CCC3(C)C(=CCC4C5(C)CCC(OC(=O)C(N)CCCCN)C(C)(C)C5CCC43C)C2C1` (centres unmarked) [3g], the IC50 came to 3.46 ± 1.16 µM with HSCs [1], 3.67 ± 0.61 µM in the test with HepG2, 4.7 ± 0.75 µM with Bel-7402 and 12.3 ± 2.34 µM in the test with L02. The “percentage (Q2 + Q4) of apoptotic HSCs” value is listed as 29.4% in the test with HSCs [3] (1.5 µM), 50.5% with HSCs [3] (3.0 µM) and 76.5% in the test with HSCs [3] (6.0 µM). For the same compound, in the test on HSCs [4], the “change of Rh123 mean fluorescent intensity (MFI) with concentration” value was “decreased with the administration of higher concentrations”. The “change of intracellular-free Ca2+ fluorescence with concentration” value in the test on HSCs [5] is on record as “increased dramatically”. The “apoptotic morphological changes of HSCs, Giemsa staining” value with HSCs [6] was “evident nuclear fragmentation, chromatin condensation, and margination in a dose-dependent manner”. The “nuclear changes of HSCs, DAPI staining” value in the test on HSCs [6] was “nuclear condensation and fragmentation, as well as the formation of apoptotic bodies with irregular shape”. In addition, the “liver morphological observation by HE staining” value in [2] is “more pathological changes were relieved in balloon-like hepatocyte edema and interstitial inflammatory cell infiltration than in OA”. Moreover, the “activity of ALT in serum” value in [2] is “remarkably closer to control”. Further, the “activity of AST in serum” value in test [2] was “remarkably closer to control”.
For `CC(C)CC(N)C(=O)OC1CCC2(C)C(CCC3(C)C2CC=C2C4CC(C)(C)CCC4(C(=O)O)CCC23C)C1(C)C` (centres unmarked) [3d], the IC50 in the test on HSCs [1], in the test with HepG2, in the test with Bel-7402 and in the test with L02 was more than 25 µM in each case.
Take `CC(N)C(=O)OC1CCC2(C)C(CCC3(C)C2CC=C2C4CC(C)(C)CCC4(C(=O)O)CCC23C)C1(C)C` (centres unmarked) [3b]: the 50% inhibitory concentration (IC50) in the test on HSCs [1] is 9.92 ± 1.05 µM; in the test with HepG2, 12.2 ± 1.48 µM; with Bel-7402, more than 25 µM; with L02, more than 50 µM.
Taken in the same sequence, the figures for `CC(C)C(N)C(=O)OC1CCC2(C)C(CCC3(C)C2CC=C2C4CC(C)(C)CCC4(C(=O)O)CCC23C)C1(C)C` (centres unmarked) [3f] were 19.6 ± 3.2 µM, 18.6 ± 2.65 µM, more than 25 µM and 15.2 ± 1.2 µM.
Regarding `CC1(C)CCC2(C(=O)O)CCC3(C)C(=CCC4C5(C)CCC(OC(=O)C6CCCN6)C(C)(C)C5CCC43C)C2C1` (centres unmarked) [3c], the IC50 was found to be 15.6 ± 2.31 µM in the test on HSCs [1], 11.1 ± 0.63 µM in the test on HepG2, 10.5 ± 1.49 µM with Bel-7402 and 10.1 ± 0.56 µM in the test on L02.
